Test results reported in US20130252930A1 (BIOMARIN PHARMACEUTICAL INC., priority 2010, published 2013).
Read-outs that look alike come from different tables or passages of the source.

Legend:
[1] = molecular target: T1, CYP17 (human testicular microsome) (Homo sapiens, UniProt P05093); assay: CYP17 enzymatic assay (IC50) (Biological Example 4); assay type: biochemical; conditions: human testicular microsome
T1 construct: using microsomal fraction from human testis (Celsis Cat #S00110) as the enzyme source; tissue Celsis S00110; host or cells: human testis microsomal fraction
T1 sequence (P05093 1-508): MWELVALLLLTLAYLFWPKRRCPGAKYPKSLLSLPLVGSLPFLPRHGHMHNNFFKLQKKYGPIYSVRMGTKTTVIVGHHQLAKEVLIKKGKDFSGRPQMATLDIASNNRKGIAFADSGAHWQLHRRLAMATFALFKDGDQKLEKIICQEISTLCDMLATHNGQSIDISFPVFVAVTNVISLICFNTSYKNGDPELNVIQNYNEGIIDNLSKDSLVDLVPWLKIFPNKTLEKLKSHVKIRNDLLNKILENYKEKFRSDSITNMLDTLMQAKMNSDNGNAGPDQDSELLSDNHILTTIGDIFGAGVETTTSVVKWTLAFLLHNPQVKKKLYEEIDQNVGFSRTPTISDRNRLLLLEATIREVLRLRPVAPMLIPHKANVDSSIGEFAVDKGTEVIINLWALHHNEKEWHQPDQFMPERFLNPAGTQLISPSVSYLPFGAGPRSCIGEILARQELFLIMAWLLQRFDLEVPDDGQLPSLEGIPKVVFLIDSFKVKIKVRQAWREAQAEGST

[2] = molecular target: T2, Cyp21 enzyme (Human HEK 293-Cyp21 stable transfected cells) (Homo sapiens, UniProt P08686); assay: CYP21-HEK293 enzymatic assay (% inhibition at 100 nM) (Biological Example 10); assay type: cell-based; conditions: HEK 293-Cyp21 cells
T2 construct: expressed in transfected cells
T2 sequence (P08686 1-495): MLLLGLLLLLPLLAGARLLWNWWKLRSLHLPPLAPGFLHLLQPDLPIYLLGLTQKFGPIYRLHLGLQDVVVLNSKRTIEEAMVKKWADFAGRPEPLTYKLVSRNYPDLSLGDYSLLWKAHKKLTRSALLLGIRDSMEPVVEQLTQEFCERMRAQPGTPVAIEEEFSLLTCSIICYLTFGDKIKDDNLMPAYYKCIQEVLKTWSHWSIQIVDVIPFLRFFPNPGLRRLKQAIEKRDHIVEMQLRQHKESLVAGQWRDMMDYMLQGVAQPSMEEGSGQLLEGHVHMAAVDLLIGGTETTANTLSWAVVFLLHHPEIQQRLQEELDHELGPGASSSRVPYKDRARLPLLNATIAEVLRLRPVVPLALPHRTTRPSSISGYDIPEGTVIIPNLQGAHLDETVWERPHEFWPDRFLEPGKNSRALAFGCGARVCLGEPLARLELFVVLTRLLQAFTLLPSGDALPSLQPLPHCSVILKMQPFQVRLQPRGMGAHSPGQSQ
Protocol: Proceeding using methods similar to those described in Biological Example 11, the percent inhibition at 100 nM was measured.
This assay was used to determine compound activity against Cyp21 enzyme. Human HEK 293-Cyp21 stable transfected cells (maintained in complete growth media DMEM+10% FBS, supplemented with 125 ug/mL Hygromycin) were seeded in a 96-well plate at 20,000 cells/well/100 uL in DMEM plus 10% FBS and allowed to attach overnight. The next day, 20 μL medium was carefully removed and 10 μL of 10× pre-made compounds in DMEM+10% FBS+10% methanol was transferred to the wells to final concentrations of 1000, 100, 10, 1, or 0.1 nM. Mock treatment was 1% methanol in growth media and the cells were left at 37° C., 5% CO2 for 5 hr. After the incubation, 10 μL of substrate progesterone (Sigma) was added to the wells to make a final concentration of 10 μM. The cells were incubated the cells at 37° C. for 20 hr. At the end of incubation, 90 μL of conditioned media was removed to measure DOC level by ELISA.
Preparation of the DOC ELISA: 100 μL of coating buffer (0.025M PBS pH 7.4) containing 200 ng/mL DOC-3-carboxymethyloxime-BSA (Steraloids. inc, Cat#3469-000) was added to each well of a 96-well plate and incubated overnight at 4° C. The next day, the plates were washed twice with 250 μl of wash solution (0.015M PBS pH 7.4 containing 0.05% Tween 20). After being washed, the wells were blocked with 250 μL blocking buffer (3% BSA in 0.025M PBS, pH 7.4) at 37° C. for 2 h. The plates were washed again 3 times as before, and then 90 μL of sample /standards (prepared in complete growth media) was added into the appropriate wells followed by 10 μL of antibody solution (1:450 rabbit anti-DOC in 0.6% BSA/PBS). The plates were incubated at room temperature for 2 h on a shaker. The contents of the wells were removed and the plate was washed 4 times. After the final wash, 100 μL of secondary antibody (1:12000 HRP-goat-anti-rabbit IgG conjugate 0.6% BSA/PBS) was added into each well. The plate was incubated at 30° C. for 45 min. The plate was washed again 4 times and 100 μL of TMB substrate solution was added to each well. The plate was incubated at room temperature for 10 min. 100 μL of stop solution was added to each well and the optical density was read at 450 nm.
The mean absorbance value for each sample was used to determine the corresponding concentration from the standard curve. Data was analyzed with “log(antagonist) vs response variable slope” under “non-linear regression analysis” using Prism5 software.

[3] = Human liver microsome stability assay (Biological Example 8b); conditions: liver microsomes, pH 7.4
Protocol: The reaction was started with addition of excess NADPH (5 mg/mL, 15 μL in 0.1 M potassium phosphate buffer, 1.0 mM EDTA, pH 7.4), the total volume is 45 μL (compound final concentration was 1 μM). […] 50 μL of the supernatant was transferred from each well into a 96-well sample plate containing 50 μL of ultra-pure water (Millipore) for LC-MS/MS analysis.

[4] = molecular target: T1, CYP17 (human testicular microsome); assay: CYP17 enzymatic assay (% inhibition at 10 nM), version 1 (Biological Example 5); assay type: biochemical
[5] = molecular target: T1, CYP17 (human testicular microsome); assay: CYP17 enzymatic assay (% inhibition at 1 nM) (Biological Example 12); assay type: biochemical; conditions: compound at 1 nM, read-out: CYP17 enzymatic assay % inhibition at 1 nM (Biological Example No. 12)
[6] = tested on: rat Cyp11B enzyme (rat adrenal mitochondria); assay: CYP11B enzymatic assay (% inhibition at 100 nM) (Biological Example 9); assay type: biochemical; conditions: for CYP11B enzymatic assay % inhibition at 100 nM (Biological Example No. 9): compound at 100 nM
Summary of the method: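 Sprague Dawley rat adrenal mitochondria were incubated with compound at 100 nM, 0.5 mM NADPH and 0.1 μM 11-deoxycortisol (pH 7.4 Tris buffer) for 60 min at 37 °C. Cortisol was measured by ELISA and corrected by subtracting the no-NADPH background. % inhibition is relative to the no-compound reaction.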

[7] = molecular target: T2, Cyp21 enzyme (Human HEK 293-Cyp21 stable transfected cells); assay: CYP21-HEK293 enzymatic assay (IC50) (Biological Example 11); assay type: cell-based; conditions: HEK 293-Cyp21 cells; read-out: CYP21-HEK293 enzymatic assay IC50 (Biological Example No. 11)
[8] = DHEA by ELISA, read-out: Biological Example No. 4: CYP17 enzymatic assay IC50
[9] = 100 nM compound, read-out: Biological Example No. 10: CYP21-HEK293 percent inhibition at 100 nM
[10] = 10 nM compound, DHEA by ELISA, read-out: Biological Example No. 5: CYP17 percent inhibition at 10 nM (version 1)
[11] = read-out: CYP17 enzymatic assay IC50 (Biological Example No. 4)
[12] = compound at 100 nM, read-out: CYP21-HEK293 enzymatic assay % inhibition at 100 nM (Biological Example No. 10)

SMILES	IC50 [1, 8] [nM]	inhibition at 0.1 µM [2, 9] [%]	half-life at 1 μM [3] [min]	inhibition at 0.01 µM [4, 10] [%]	IC50 [1, 11] [nM]	inhibition at 0.001 µM [5] [%]	inhibition at 0.1 µM [2, 12] [%]	other results
C[C@]12CCCC(=O)CC1=CCC1[C@@H]2CC[C@]2(C)C(n3ccnc3)=CC[C@@H]12 (stereo partly drawn) [Compound 107, (3aS,10aR,10bS,12aS)-1-(1H-imidazol-1-yl)-10a,12a-dimethyl-3,3a,3b,4,8,9,10,10a,10b,11,12,12a-dodecahydrocyclohepta[a]cyclopenta[f]naphthalen-7(6H)-one]	< 11	≥ 30	1 to 50	> 80				
C[C@]12CCC3C(CCC4=CC(=NO)CC[C@@]43C)C1=CC=C2c1cccnc1 (stereo partly drawn) [Compound 288, (10R,13S)-10,13-dimethyl-17-(pyridin-3-yl)-6,7,8,9,10,11,12,13-octahydro-1H-cyclopenta[a]phenanthren-3(2H)-one oxime]			1 to 50		< 11	> 50	< 30	
CN1CC[C@@]2(C)C(=CC1=O)CC[C@H]1C3=CC=C(c4cnccn4)[C@@]3(C)CC[C@@H]12 [Compound 184, (5aR,7aS)-3,5a,7a-trimethyl-8-(pyrazin-2-yl)-3,4,5,5a,5b,6,7,7a,11,12-decahydrocyclopenta[5,6]naphtho[1,2-d]azepin-2(10bH)-one]					< 11	10 to 50	≥ 30	inhibition at 0.01 µM ([4]; compound at 10 nM, read-out: CYP17 enzymatic assay % inhibition at 10 nM (Biological Example No. 5)): > 80%
C[C@]12CCCC(=O)CC1=CC[C@@H]1[C@@H]2CC[C@]2(C)C(c3cnccn3)=CC[C@@H]12 [Compound 142, 10a,12a-dimethyl-1-(pyrazin-2-yl)-3,3a,3b,4,8,9,10,10a,10b,11,12,12a-dodecahydrocyclohepta[a]cyclopenta[f]naphthalen-7(6H)-one]		≥ 30	1 to 50	> 80				
COC(=O)NC1CC[C@@]2(C)C(=CCC3C2CC[C@]2(C)C(n4ccnc4)=CCC32)C1 (stereo partly drawn) [Compound 239, methyl ((10R,13S)-17-(1H-imidazol-1-yl)-10,13-dimethyl-2,3,4,7,8,9,10,11,12,13,14,15-dodecahydro-1H-cyclopenta[a]phenanthren-3-yl)carbamate]					< 11	> 50	< 30	CYP11B enzymatic assay % inhibition at 100 nM (Biological Example No. 9) [6]: T (T means the compound had a percent inhibition of less than 32% when tested at 100 nM)
C[C@]12CC[C@H]3[C@@H](CC=C4C[C@H](NC(=O)C5CC5)CC[C@@]43C)C1=CC=C2n1ccnc1 [Compound 246, N-((3R,10R,13S)-17-(1H-imidazol-1-yl)-10,13-dimethyl-2,3,4,7,8,9,10,11,12,13-decahydro-1H-cyclopenta[a]phenanthren-3-yl)cyclopropanecarboxamide]						10 to 50	< 30	CYP11B enzymatic assay % inhibition at 100 nM (Biological Example No. 9) [6]: U (U means the compound had a percent inhibition of greater than or equal to 32%)
CC(=O)N[C@@H]1CC[C@@]2(C)C(=CC[C@H]3C4=CC=C(n5ccnc5)[C@@]4(C)CC[C@@H]32)C1 [Compound 245, N-((3R,10R,13S)-17-(1H-imidazol-1-yl)-10,13-dimethyl-2,3,4,7,8,9,10,11,12,13-decahydro-1H-cyclopenta[a]phenanthren-3-yl)acetamide]						10 to 50	< 30	CYP11B enzymatic assay % inhibition at 100 nM (Biological Example No. 9) [6]: T (T means the compound had a percent inhibition of less than 32% when tested at 100 nM)
COc1cncc(C2=CC=C3[C@@H]4CCC5=CC(=O)N(C)CC[C@]5(C)[C@H]4CC[C@]23C)c1 [Compound 159]	< 11	≥ 30	1 to 50	> 80				
CON=C1C=C2CCC3C4=CC=C(c5cccnc5)[C@@]4(C)CCC3[C@@]2(C)CC1 (stereo partly drawn) [Compound 287, (10R,13S)-10,13-dimethyl-17-(pyridin-3-yl)-6,7,8,9,10,11,12,13-octahydro-1H-cyclopenta[a]phenanthren-3(2H)-one O-methyl oxime]			> 50		< 11	10 to 50	≥ 30	IC50 [7]: > 100 nM
COc1cncc(C2=CC=C3[C@@H]4CCC5=CC(=O)NCC[C@]5(C)[C@H]4CC[C@]23C)c1 [Compound 86, (5aR,7aS)-8-(5-methoxypyridin-3-yl)-5a,7a-dimethyl-4,5,5a,5b,6,7,7a,10b,11,12-decahydrocyclopenta[5,6]naphtho[2,1-c]azepin-3(2H)-one]	< 11	≥ 30		50 to 80				
Cc1cncc(C2=CC[C@H]3[C@@H]4CCC5=CC(=O)N(C)CC[C@]5(C)[C@H]4CC[C@]23C)c1 [Compound 54]	< 11	< 30		50 to 80				
C[C@]12CCC(=O)NC=C1CCC1C2CC[C@]2(C)C(n3cnnn3)=CCC12 (stereo partly drawn) [Compound 156, (5aR,7aS)-5a,7a-dimethyl-8-(1H-tetrazol-1-yl)-4,5,5a,5b,6,7,7a,10,10a,10b,11,12-dodecahydrocyclopenta[5,6]naphtho[2,1-c]azepin-3(2H)-one]		< 30						Biological Example No. 9: CYP11B percent inhibition at 100 nM ([6]; 100 nM compound, cortisol by ELISA): U (U means the compound had a percent inhibition of greater than or equal to 32%)
